Assays:
[1] = molecular target: T1, human acid ceramidase (AC) (Homo sapiens, UniProt Q13510); test: Fluorogenic human-AC assay; format: biochemical
T1 construct: made in house; host or cells: HEK-293 cells stably overexpressing human AC; enzyme-enriched lysate
T1 sequence (Q13510 143-395 limits assumed): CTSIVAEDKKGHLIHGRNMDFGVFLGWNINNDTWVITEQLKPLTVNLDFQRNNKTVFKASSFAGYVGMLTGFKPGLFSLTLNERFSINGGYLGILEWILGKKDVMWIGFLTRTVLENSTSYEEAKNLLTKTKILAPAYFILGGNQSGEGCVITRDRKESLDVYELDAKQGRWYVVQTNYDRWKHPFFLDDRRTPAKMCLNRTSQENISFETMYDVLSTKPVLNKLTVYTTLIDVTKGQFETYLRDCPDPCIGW
T1 sequence (Q13510 22-142 limits assumed): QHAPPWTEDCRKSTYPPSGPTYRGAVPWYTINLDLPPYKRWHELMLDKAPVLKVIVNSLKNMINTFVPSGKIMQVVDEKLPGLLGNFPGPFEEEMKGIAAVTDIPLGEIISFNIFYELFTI
Description: Human recombinant proteins were obtained from HEK-293 stable overexpressing human NAAA, AC, and FAAH-1 cell lines, respectively. Cells were grown in Dulbecco’s modified Eagle medium (DMEM) containing 10% FBS, 1% glutamine, 1 mM sodium pyruvate, and 500 μg/mL geneticin (G418). To obtain a high-density cell proliferation, h-NAAA-HEK-293 cells were grown in BelloCell-500 bottle, a compact bioreactor. On the contrary, h-AC and h-FAAH-1-HEK-293 cells were grown in 150 mm dishes and scraped off with cold PBS 1× pH 7.4 at 80% confluence. Cell pellets were collected and stored at −80 °C until protein preparation.
HEK-293 cells stably transfected with the human NAAA or human AC coding sequences were used as the enzyme source. […] The suspension was finally centrifuged at 105,000g for 1 h at 4 °C, supernatants were collected, protein concentration was measured, and samples were aliquoted and stored at −80 °C until use.
The assay was performed in Optiplate 96-wells black plates (PerkinElmer, Massachusetts, USA) in a total reaction volume of 250 μL. h-AC protein (2 μg) was preincubated for 10 min with various concentrations of test compounds or vehicle control (DMSO 5%) in 25 mM sodium acetate buffer (pH 4.5). […] Fluorescence was measured with the EnVision 2014 Multilabel Reader (PerkinElmer, Massachusetts, USA) at an excitation/emission wavelength of 355/460 nm. […]

h-NAAA = molecular target: T2, h-NAAA (Homo sapiens, UniProt Q02083); test: Competitive activity-based protein profiling (ABPP) with probe ARN14686; format: binding
T2 construct: made in house; host or cells: HEK-293 cells stably overexpressing human NAAA; enzyme-enriched (lysosomal) lysate
T2 sequence (Q02083 29-125 limits assumed): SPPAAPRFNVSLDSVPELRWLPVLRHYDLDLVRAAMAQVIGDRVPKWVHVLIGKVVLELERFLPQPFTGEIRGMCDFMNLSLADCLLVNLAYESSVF
T2 sequence (Q02083 126-359 limits assumed): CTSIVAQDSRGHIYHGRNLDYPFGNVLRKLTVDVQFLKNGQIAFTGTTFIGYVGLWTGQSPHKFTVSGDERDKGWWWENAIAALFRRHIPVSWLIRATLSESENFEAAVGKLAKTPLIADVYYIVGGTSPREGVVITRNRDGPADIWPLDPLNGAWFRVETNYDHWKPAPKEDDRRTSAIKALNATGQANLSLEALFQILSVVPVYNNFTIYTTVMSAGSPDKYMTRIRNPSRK
Description: At the end of this preincubation time, the activity-based probe undec-10-ynyl-N-[(S)-2-oxoazetidin-3-yl]carbamate (ARN14686, see Figure S1, Supporting Information)[45] was added at 20 μM for 15 min or for 4 h at 37 °C. Next, click chemistry reaction was performed by adding the following reagents at the indicated final concentrations: 100 μM azide-PEG3-alexa fluor 545 (CLK-AZ109, Jena Bioscience), 1.0 mM tris(2-carboxyethyl)phosphine (TCEP) hydrochloride, 100 μM tris-[(1-benzyl-1H-1,2,3-triazol-4-yl)methyl]amine (TBTA), and 1 mM CuSO4·5H2O.[62] TBTA was first dissolved in DMSO at 83.5 mM and then diluted with four volumes of tert-butanol. The reaction was mixed by vortexing and incubated 2 h at 25 °C. Samples (10 μL) were analyzed by SDS-PAGE, and gel fluorescence was scanned at 532 nm wavelength (ChemidDoc MP, BIO-RAD).

CCOCc1cnc(O[C@H]2C[C@H]3CC[C@@H](C2)N3S(=O)(=O)c2c(C)n[nH]c2C)cn1 [Compound 50, (1R,3r,5S)-8-((3,5-Dimethyl-1H-pyrazol-4-yl)sulfonyl)-3-((5-(ethoxymethyl)pyrazin-2-yl)oxy)-8-azabicyclo[3.2.1]octane]
inhibition at 30 µM [1]: 34%
effect on h-NAAA labeling by ABP ARN14686, 15 min probe incubation (h-NAAA; 20 μM, lysosomal extracts of h-NAAA overexpressing HEK-293 cells, probe 15 min): prevented the binding
effect on h-NAAA labeling by ABP ARN14686, 4 h probe incubation (h-NAAA; 20 μM, lysosomal extracts of h-NAAA overexpressing HEK-293 cells, probe 4 h): almost totally reverted
mode of interaction with h-NAAA (h-NAAA; competitive ABPP): non-covalent interaction with h-NAAA

Reference: PMC8474119, “Discovery and SAR Evolution of Pyrazole Azabicyclo[3.2.1]octane Sulfonamides as a Novel Class of Non-Covalent N-Acylethanolamine-Hydrolyzing Acid Amidase (NAAA) Inhibitors for Oral Administration” (Journal of Medicinal Chemistry, 2021)
